± gives the expanded uncertainty stated by the source.
Key:
[1] = activity coefficient (dimensionless); of the first substance listed, at infinite dilution; xn = mol fraction of the nth substance listed; conditions: 101 kPa, Liquid, dilutor technique, x1 = 0
[2] = excess molar enthalpy (molar enthalpy of mixing); xn = mol fraction of the nth substance listed; conditions: 353.15 K, 101 kPa, Liquid, Flow calorimetry

Structure (SMILES)	activity coefficient ([1]; 323.15 K)	activity coefficient ([1]; 333.15 K)	activity coefficient ([1]; 343.15 K)	activity coefficient ([1]; 353.15 K)	activity coefficient ([1]; 313.15 K)	further results
CCO [ethanol] + CCn1cc[n+](C)c1.COS(=O)(=O)[O-]	0.449 ± 0.042	0.398 ± 0.041	0.349 ± 0.039	0.303 ± 0.039	–	–
CCCO [propan-1-ol] + CCOS(=O)(=O)[O-].CCn1cc[n+](C)c1	1.03 ± 0.064	0.914 ± 0.058	0.855 ± 0.055	0.803 ± 0.054	1.2 ± 0.078	activity coefficient ([1]; 303.15 K): 1.31 ± 0.087
CCO [ethanol] + CCn1cc[n+](C)c1.O=S(=O)([O-])O	0.269 ± 0.039	0.177 ± 0.039	0.13 ± 0.039	0.116 ± 0.039	0.426 ± 0.041	–
CCC(C)O (stereo unspecified) [butan-2-ol] + CCn1cc[n+](C)c1.O=S(=O)([O-])O	1.22 ± 0.079	0.76 ± 0.052	0.566 ± 0.045	0.452 ± 0.042	–	–
CO [methanol] + CCOS(=O)(=O)[O-].CCn1cc[n+](C)c1	0.406 ± 0.041	0.41 ± 0.041	0.389 ± 0.04	0.339 ± 0.039	0.419 ± 0.041	activity coefficient ([1]; 303.15 K): 0.537 ± 0.044
CCO [ethanol] + CCOS(=O)(=O)[O-].CCn1cc[n+](C)c1	0.703 ± 0.05	0.6 ± 0.046	0.554 ± 0.045	0.534 ± 0.044	0.783 ± 0.053	activity coefficient ([1]; 303.15 K): 0.866 ± 0.056
CCCO [propan-1-ol] + CCn1cc[n+](C)c1.O=S(=O)([O-])O	0.431 ± 0.041	0.338 ± 0.039	0.233 ± 0.039	0.196 ± 0.039	–	–
CCC(C)O (stereo unspecified) [butan-2-ol] + CCn1cc[n+](C)c1.COS(=O)(=O)[O-]	4.02 ± 0.36	3.11 ± 0.28	2.58 ± 0.23	2.24 ± 0.2	–	–
CCn1cc[n+](C)c1.COS(=O)(=O)[O-] [1-ethyl-3-methylimidazolium methylsulfate] + CCO	–	–	–	–	–	excess molar enthalpy ([2]; x2 = 0.0977): 0.033 ± 0.000789 kcal/mol; excess molar enthalpy ([2]; x2 = 0.1834): 0.0608 ± 0.00136 kcal/mol; excess molar enthalpy ([2]; x2 = 0.249): 0.0835 ± 0.00184 kcal/mol; excess molar enthalpy ([2]; x2 = 0.3794): 0.134 ± 0.00287 kcal/mol; excess molar enthalpy ([2]; x2 = 0.5247): 0.185 ± 0.00406 kcal/mol; excess molar enthalpy ([2]; x2 = 0.6059): 0.206 ± 0.00454 kcal/mol; excess molar enthalpy ([2]; x2 = 0.701): 0.218 ± 0.00478 kcal/mol; excess molar enthalpy ([2]; x2 = 0.7779): 0.209 ± 0.00454 kcal/mol; excess molar enthalpy ([2]; x2 = 0.8414): 0.183 ± 0.00406 kcal/mol; excess molar enthalpy ([2]; x2 = 0.8947): 0.14 ± 0.00311 kcal/mol; excess molar enthalpy ([2]; x2 = 0.9358): 0.091 ± 0.00198 kcal/mol; excess molar enthalpy ([2]; x2 = 0.9754): 0.0381 ± 0.000884 kcal/mol
CC(C)O [propan-2-ol] + CCOS(=O)(=O)[O-].CCn1cc[n+](C)c1	1.25 ± 0.082	1.04 ± 0.065	1.01 ± 0.062	0.966 ± 0.06	1.31 ± 0.087	activity coefficient ([1]; 303.15 K): 1.48 ± 0.1
CCCCO [butan-1-ol] + CCn1cc[n+](C)c1.COS(=O)(=O)[O-]	2.62 ± 0.23	2.4 ± 0.21	2.05 ± 0.18	1.74 ± 0.12	–	–
CCOS(=O)(=O)[O-].CCn1cc[n+](C)c1 [1-ethyl-3-methylimidazolium ethyl sulfate] + CCO	–	–	–	–	–	excess molar enthalpy ([2]; x2 = 0.0627): 0.0259 ± 0.000645 kcal/mol; excess molar enthalpy ([2]; x2 = 0.1063): 0.0446 ± 0.00103 kcal/mol; excess molar enthalpy ([2]; x2 = 0.1471): 0.0636 ± 0.00141 kcal/mol; excess molar enthalpy ([2]; x2 = 0.1979): 0.0845 ± 0.00186 kcal/mol; excess molar enthalpy ([2]; x2 = 0.267): 0.109 ± 0.00239 kcal/mol; excess molar enthalpy ([2]; x2 = 0.3288): 0.137 ± 0.00287 kcal/mol; excess molar enthalpy ([2]; x2 = 0.4017): 0.167 ± 0.00359 kcal/mol; excess molar enthalpy ([2]; x2 = 0.4504): 0.181 ± 0.00382 kcal/mol; excess molar enthalpy ([2]; x2 = 0.548): 0.206 ± 0.00454 kcal/mol; excess molar enthalpy ([2]; x2 = 0.6281): 0.219 ± 0.00478 kcal/mol; excess molar enthalpy ([2]; x2 = 0.7203): 0.219 ± 0.00478 kcal/mol; excess molar enthalpy ([2]; x2 = 0.7937): 0.205 ± 0.0043 kcal/mol; excess molar enthalpy ([2]; x2 = 0.8535): 0.174 ± 0.00382 kcal/mol; excess molar enthalpy ([2]; x2 = 0.9032): 0.13 ± 0.00287 kcal/mol; excess molar enthalpy ([2]; x2 = 0.9412): 0.0823 ± 0.00182 kcal/mol; excess molar enthalpy ([2]; x2 = 0.9776): 0.0327 ± 0.000765 kcal/mol

Second part, led by results:

activity coefficient ([1]; 323.15 K)	activity coefficient ([1]; 333.15 K)	activity coefficient ([1]; 343.15 K)	activity coefficient ([1]; 353.15 K)	activity coefficient ([1]; 313.15 K)	Structure (SMILES)	further results
0.257 ± 0.039	0.203 ± 0.039	0.178 ± 0.039	0.105 ± 0.039	–	CO [methanol] + CCn1cc[n+](C)c1.COS(=O)(=O)[O-]	–
0.087 ± 0.039	0.078	0.058	0.041	–	CO [methanol] + CCn1cc[n+](C)c1.O=S(=O)([O-])O	–
1.69 ± 0.12	1.56 ± 0.11	1.62 ± 0.11	1.39 ± 0.094	1.83 ± 0.13	CCC(C)O (stereo unspecified) [butan-2-ol] + CCOS(=O)(=O)[O-].CCn1cc[n+](C)c1	activity coefficient ([1]; 303.15 K): 2.06 ± 0.18
0.577 ± 0.046	0.356 ± 0.04	0.278 ± 0.039	0.223 ± 0.039	–	CC(C)O [propan-2-ol] + CCn1cc[n+](C)c1.O=S(=O)([O-])O	–
1.05 ± 0.066	0.975 ± 0.06	0.839 ± 0.055	0.705 ± 0.05	–	CCCO [propan-1-ol] + CCn1cc[n+](C)c1.COS(=O)(=O)[O-]	–
0.758 ± 0.052	0.62 ± 0.047	0.43 ± 0.041	–	–	CCCCO [butan-1-ol] + CCn1cc[n+](C)c1.O=S(=O)([O-])O	–
1.33 ± 0.089	1.17 ± 0.075	1.01 ± 0.062	0.84 ± 0.055	–	CC(C)O [propan-2-ol] + CCn1cc[n+](C)c1.COS(=O)(=O)[O-]	–
1.65 ± 0.12	1.39 ± 0.093	1.37 ± 0.092	1.19 ± 0.077	1.93 ± 0.14	CCCCO [butan-1-ol] + CCOS(=O)(=O)[O-].CCn1cc[n+](C)c1	–
